ChEMBL document CHEMBL1136756, “De novo design, synthesis, and evaluation of novel nonsteroidal phenanthrene ligands for the estrogen receptor” (J Med Chem, 2003)

Columns and labels:
Estrogen receptor = target: T1, Estrogen receptor (Homo sapiens, UniProt P03372)
T1 sequence (P03372 whole entry): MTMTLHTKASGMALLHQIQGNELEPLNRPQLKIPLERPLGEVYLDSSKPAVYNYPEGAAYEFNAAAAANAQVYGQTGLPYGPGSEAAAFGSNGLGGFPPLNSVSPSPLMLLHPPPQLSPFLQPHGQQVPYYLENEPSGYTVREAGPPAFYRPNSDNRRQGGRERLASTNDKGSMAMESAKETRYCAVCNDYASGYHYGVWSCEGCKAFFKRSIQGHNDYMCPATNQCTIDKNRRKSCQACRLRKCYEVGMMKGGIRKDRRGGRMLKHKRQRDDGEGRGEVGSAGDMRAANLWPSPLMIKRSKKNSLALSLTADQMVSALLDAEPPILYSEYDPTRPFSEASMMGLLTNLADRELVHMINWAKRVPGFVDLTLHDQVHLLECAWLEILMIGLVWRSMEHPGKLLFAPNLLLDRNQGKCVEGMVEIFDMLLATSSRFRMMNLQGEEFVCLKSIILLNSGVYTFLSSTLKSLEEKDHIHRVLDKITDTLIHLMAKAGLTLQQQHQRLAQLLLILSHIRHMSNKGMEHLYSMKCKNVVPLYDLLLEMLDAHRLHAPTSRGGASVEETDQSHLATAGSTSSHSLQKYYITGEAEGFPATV
Description: In vitro displacement of 0.5 nM [3H]17-beta-estradiol from human Estrogen receptor alpha

Estrogen receptor beta = Estrogen receptor beta (Homo sapiens, UniProt Q92731)
Estrogen receptor beta, sequence (Q92731 whole entry): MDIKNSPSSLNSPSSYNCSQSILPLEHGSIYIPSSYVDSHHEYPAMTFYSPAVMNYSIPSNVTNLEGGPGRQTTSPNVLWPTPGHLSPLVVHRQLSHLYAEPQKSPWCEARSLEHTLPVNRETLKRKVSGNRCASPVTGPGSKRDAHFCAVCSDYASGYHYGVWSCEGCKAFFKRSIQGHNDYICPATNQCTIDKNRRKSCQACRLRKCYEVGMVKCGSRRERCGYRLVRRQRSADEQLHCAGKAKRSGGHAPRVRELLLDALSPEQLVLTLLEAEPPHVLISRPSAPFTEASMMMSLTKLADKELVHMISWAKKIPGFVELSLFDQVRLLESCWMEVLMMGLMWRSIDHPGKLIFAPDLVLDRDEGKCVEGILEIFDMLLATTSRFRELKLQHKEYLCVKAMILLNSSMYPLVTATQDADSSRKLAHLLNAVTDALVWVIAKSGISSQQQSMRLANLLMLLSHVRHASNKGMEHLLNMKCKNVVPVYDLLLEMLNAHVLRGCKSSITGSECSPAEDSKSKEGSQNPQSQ
Description: In vitro displacement of 0.5 nM [3H]17-beta-estradiol from human Estrogen receptor beta

SMILES | Ki (Estrogen receptor) | Ki (Estrogen receptor beta)
CCc1ccc2c(c1)C(c1ccc(OCCN3CCCCC3)cc1)Cc1cc(O)cc(C)c1-2 (stereo unspecified) | 8.69 nM | 190 nM
CC(C)=C(C)c1ccc2c(c1)c(-c1ccc(OCCN3CCCCC3)cc1)cc1cc(O)cc(C)c12 | 210 nM | 200 nM
Cc1cc(O)cc2cc(-c3ccc(OCCN4CCCCC4)cc3)c3cc(C(C)O)ccc3c12 (stereo unspecified) | – | 190 nM
C=C(C)c1ccc2c(c1)c(-c1ccc(OCCN3CCCCC3)cc1)cc1cc(O)cc(C)c12 | 290 nM | 180 nM
Cc1cc(O)cc2cc(-c3ccc(OCCN4CCCCC4)cc3)c3cc(C(=O)C(C)C)ccc3c12 | 490 nM | > 1000 nM
CC(=O)c1ccc2c(c1)c(-c1ccc(OCCN3CCCCC3)cc1)cc1cc(O)cc(C)c12 | > 1000 nM | 630 nM
